Consider six compounds from patent US7696313B2, “Prodrug compounds with isoleucine” (priority 2000, dated 2010).

Molecules are shown by their SMILES. Like-named read-outs stand apart in the source and are kept apart here. Where only a bound is given, the exact number is not on record here.

Series [1] concerns carcinoma cell trouase (MCF 7/6 cell homogenate, MCF 7/6 conditioned media, HeLa cell extract anion exchange fraction pool). Description: Cleavage assay with carcinoma cell enzyme (trouase) preparations. It counts as biochemical, human. To be noted: under appropriate assay conditions. As for the experimental part:
A good candidate for a prodrug with improved therapeutic index is activated by cancer cells but relatively stable in whole human blood. Three different preparations of carcinoma cell trouase were used to screen various test compounds. These three preparations were as follows:
(a) MCF 7/6 (breast carcinoma) cell homogenate
(b) MCF 7/6 (breast carcinoma) conditioned media, and
(c) HeLa (cervical carcinoma) cell extract anion exchange fraction pool.
MCF 7/6 cells were grown to confluence in a serum free medium containing DMEM:F12 (1:1), 50 mg/L bovine serum albumin, ITS-X (10 mg/L insulin, 5.5 mg/L transferrin, 6.7 μg/L Na selenite, 2 mg/L ethanolamine), and Lipid Concentrate (Gibco #21900-030)100 mL of cells were harvested by centrifugation at 4° C. 10,000×g, for 20 min and decanting the supernatant. The pellet was resuspended in 2 mL phosphate buffered saline (Gibco) and centrifuged at 18,000×g for 10 min. […]
A portion of the ultracentrifugation supernatant was diluted 2-fold with a 20 mM triethanolamine-HCl pH 7.2 buffer containing 0.01% (w/v) Triton X-100 and 0.02% (w/v) sodium azide (equilibration buffer). […] Its transformation into Ala-Leu-Dox was quantified by reverse phase high performance liquid chromatography utilizing fluorescence detection of the anthracycline moiety. […]

Series [2] can be described thus: Repeat-dose tolerance (RD-MTD) in tumor bearing mice. It counts as in vivo. To be noted: mouse, in vivo, corrected results. As for the experimental part: In repeat-dose studies in tumor bearing mice, groups of ten mice were dosed with various amounts of prodrug for a total of five doses at either five day or 1 week intervals.
Series [3] in a line: Initial single dose Maximum Tolerated Dose (MTD) study, 28 days. It counts as in vivo, mice. The following applies: mouse, in vivo, intravenous. The method, then:
In our initial single dose Maximum Tolerated Dose (MTD) study, groups of five normal mice were administered intravenous bolus doses of Suc-Ile-Ala-Leu-Dox. The mice were observed daily for 28 days and body weights measured twice weekly.
The mice were observed daily for 28 days and body weights measured twice weekly.
In the single dose Maximum Tolerated Dose (MTD) studies, groups of normal mice were administered intravenous bolus doses of the prodrug. The mice were observed daily for 28 days and body weights measured twice weekly. The MTD was estimated to be equal to the highest dose that produced no death in mice after 28 days.

Series [4] in a line: Metabolism and clearance in normal mice (plasma and urine, LC MS/MS). It counts as in vivo. The method, then: The metabolism and clearance of Suc-Ile-Ala-Leu-Dox was studied in normal mice. The mice were administered Suc-Ile-Ala-Leu-Dox at a single intravenous bolus dose of 117 mg/kg. Plasma samples were obtained at 1 and 4 hours. Plasma samples of 100 μl were transferred to Eppendorf tubes (1.5 mL) and an internal standard of daunorubicin (20 μL at 0.5 mg/ml) was added together with acetonitrile (400 μl). The tubes were capped and briefly vortexed followed by centrifugation at 14,000 rpm. 420 μl from each tube was removed and dried in vacuo. Each sample was reconstituted in 65 μl ammonium formate containing acetonitrile (20%) prior to analysis by reverse phase liquid chromatography in combination with tandem mass spectrometry (LC MS/MS).
Urine was collected at 2 and 24 hours post administration from pairs of mice in metabolic cages. Urine samples were diluted with ammonium formate containing acetonitrile (20%) to give a target analyte concentration within the practical range of the LC MS/MS assay. 30 μl of each diluted sample was placed in an Eppendorf tube (1.5 ml) and an internal standard of daunorubicin (20 μL at 0.5 mg/ml) was added together with 50 μl of ammonium formate containing acetonitrile (20%). Each sample was then analyzed by LC MS/MS.
An Agilent HP 1100. HPLC with DAD detector and Chemstation software was coupled to a PE Sciex API 365 mass spectrometer with an electrospray ion source.
HPLC was performed on a TSK-Gel Super ODS, […], 4.6×50 mm (TosoHaas) reversed phase column equipped with a […] C18 guard disc (Higgins Analytical) and stainless steel frit (Upchurch Scientific). Chromatography was performed at room temperature. The flow rate was 0.5 ml/min. Injection volume was 50 μl. Gradient elution was performed using a mobile phase of 20 mM ammonium formate with increasing amounts of acetonitrile. The API 365 was operated at 365° C. in a multiple reaction monitoring mode, set to monitor specific analyte parent-daughter ion pairs. Integration of chromatograms was performed by MacQuan software (PE Sciex) and quantitation of each analyte obtained by comparison to previously obtained calibration curves. Daunorubicin was used as an internal standard in all cases.
Percent of administered dose—plasma volume estimated at 40% of blood volume, which was calculated at 7% of animal's body weight.
Plasma samples were obtained at 1 and 4 hours from separate mice. Urine was collected at 2 and 24 hours post administration from pairs of mice in metabolic cages. The plasma and urine samples were prepared and analyzed as described in Example 4.

Experiment in series [5]: as above
Type of series: in vivo. This is another data set of the same source.

The mark [6] stands for this setting: after Suc-βAla-Ile-Ala-Leu-Dox 117 mg/kg single intravenous bolus.
The mark [7] stands for this setting: after Suc-Ile-Ala-Leu-Dox 117 mg/kg single intravenous bolus.

For `CC[C@H](C)[C@H](NC(=O)CCNC(=O)CCC(=O)O)C(=O)N[C@@H](C)C(=O)N[C@@H](CC(C)C)C(=O)N[C@H]1C[C@H](O[C@H]2C[C@](O)(C(C)=O)Cc3c(O)c4c(c(O)c32)C(=O)c2c(OC)cccc2C4=O)O[C@@H](C)[C@H]1O` [succinyl-βAla-Ile-Ala-Leu-Daunorubicin], in series [1], the “cleavage activity of trouase” value is listed as “at least twenty-fold less active”.
Same read-out and setting: the result for `COc1cccc2c1C(=O)c1c(O)c3c(c(O)c1C2=O)C[C@@](O)(C(C)=O)C[C@@H]3O[C@H]1C[C@H](NC(=O)[C@H](CC(C)C)NC(=O)[C@H](C)NC(=O)[C@H](CC(C)C)NC(=O)CCNC(=O)CCC(=O)O)[C@H](O)[C@H](C)O1` [succinyl-βAla-Leu-Ala-Leu-Daunorubicin, reference compound] reads “readily cleaves”.
`COc1cccc2c1C(=O)c1c(O)c3c(c(O)c1C2=O)C[C@@](O)(C(=O)CO)C[C@@H]3O[C@H]1C[C@H](NC(=O)[C@H](CC(C)C)NC(=O)[C@H](C)NC(=O)[C@H](CC(C)C)NC(=O)CCC(=O)O)[C@H](O)[C@H](C)O1` [Suc-Leu-Ala-Leu-Dox, reference compound]: the MTD at 60 days came to 31 mg/kg in series [2] (Repeat Dose MTD, doxorubicin equivalent dose, Table 8, value in parentheses) and 52 mg/kg in series [2] (Q 5D × 5 or Q 7D × 5, read-out: Repeat Dose MTD (mg/kg), Table 8). In addition, the MTD at 28 days in series [3] (28 days, uncorrected doses, read-out: SD MTD (mg/kg), Table 7) is more than 117 mg/kg; in series [3] (SD MTD, doxorubicin equivalent dose, Table 8, value in parentheses, corrected results), 35 mg/kg; in series [3] (SD MTD, molar equivalent dose of doxorubicin, Table 7, value in parentheses, uncorrected) it was more than 70 mg/kg; in series [3] (corrected results, read-out: SD MTD (mg/kg), Table 8), 59 mg/kg. The “Major Plasma Metabolite, Table 7” value (mouse, in vivo) is “Leu-Dox”. Further, the “Major Plasma Metabolite, Table 8” value (mouse, in vivo) was “Leu-Dox”.
As for `COc1cccc2c1C(=O)c1c(O)c3c(c(O)c1C2=O)C[C@@](O)(C(=O)CO)C[C@@H]3O[C@H]1C[C@H](NC(=O)[C@H](CC(C)C)NC(=O)[C@H](C)NC(=O)[C@H](CC(C)C)NC(=O)CCNC(=O)CCC(=O)O)[C@H](O)[C@H](C)O1` [Suc-βAla-Leu-Ala-Leu-Dox, reference compound], where the note is “mice”, the “Major Plasma Metabolite, Table 7” value is recorded as “Ala-Leu-Dox” and the “Major Plasma Metabolite, Table 8” value is “Ala-Leu-Dox”.
Turning to `COc1cccc2c1C(=O)c1c(O)c3c(c(O)c1C2=O)C[C@@](O)(C(=O)CO)C[C@@H]3O[C@H]1C[C@H](NC(=O)[C@H](CC(C)C)NC(=O)[C@H](C)N)[C@H](O)[C@H](C)O1` [Ala-Leu-Dox], in series [4] (mouse, in vivo), the “Plasma 1 hr, percent of administered dose” value was 0.00 % of administered dose; the “Plasma 4 hr, percent of administered dose” value was 0.00 % of administered dose; the “Urine 24 hr, percent of administered dose” value was 0.00 % of administered dose.
As to `COc1cccc2c1C(=O)c1c(O)c3c(c(O)c1C2=O)C[C@@](O)(C(=O)CO)C[C@@H]3O[C@H]1C[C@H](NC(=O)[C@@H](N)CC(C)C)[C@H](O)[C@H](C)O1` [Leu-Dox], the “Plasma 1 hr, percent of administered dose” value in series [5] (setting [6]) was 0.04 % of administered dose; in series [4] (setting [7]) it was 0.02 % of administered dose. Also, the “Plasma 4 hr, percent of administered dose” value in series [5] (setting [6]) and in series [4] (setting [7]) was 0.00 % of administered dose throughout. In addition, the “Urine 2 hr, percent of administered dose” value in series [5] (after Suc-βAla-Ile-Ala-Leu-Dox 117 mg/kg, collected 0-2 hours) is 4.69 % of administered dose; in series [4] (after Suc-Ile-Ala-Leu-Dox 117 mg/kg, collected 0-2 hours), 1.17 % of administered dose. For the same compound, the “Urine 24 hr, percent of administered dose” value in series [5] (after Suc-βAla-Ile-Ala-Leu-Dox 117 mg/kg, collected 2-24 hours) is on record as 2.29 % of administered dose; in series [4] (after Suc-Ile-Ala-Leu-Dox 117 mg/kg, collected 2-24 hours), 2.25 % of administered dose.
